According to ChEMBL document CHEMBL1201862, “PubChem BioAssay data set” (2004):
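48-hour exposure; five concentrations; linearly interpolated endpoints. GI50: concentration for 50% inhibition of growth.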 Activity calls are given as the source filed them. No stated cut-off is given here; in the data, active = GI50 up to about 1.1 µM and inactive = higher.

What was measured:
Test in all cases: NCI tumour cell line growth inhibition, 48 h
786-0 = tested on: 786-0
ACHN = tested on: ACHN
TK-10 = tested on: TK-10
SF-268 = tested on: SF-268
SN12C = tested on: SN12C
HOP-62 = tested on: HOP-62
LXFL 529 = tested on: LXFL 529
IGROV-1 = tested on: IGROV-1
COLO 205 = tested on: COLO 205
HCC 2998 = tested on: HCC 2998
SR = tested on: SR
KM-20L2 = tested on: KM-20L2
NCI-H23 = tested on: NCI-H23
K562 = tested on: K562
UACC-257 = tested on: UACC-257
UACC-62 = tested on: UACC-62
M19-MEL = tested on: M19-MEL
DLD-1 = tested on: DLD-1
EKVX = tested on: EKVX
HOP-18 = tested on: HOP-18
HCT-116 = tested on: HCT-116
OVCAR-8 = tested on: OVCAR-8
U-251 = tested on: U-251
MOLT-4 = tested on: MOLT-4
KM12 = tested on: KM12
SNB-75 = tested on: SNB-75
SNB-19 = tested on: SNB-19
SF-539 = tested on: SF-539
NCI-H226 = tested on: NCI-H226
SK-MEL-2 = tested on: SK-MEL-2
RPMI-8226 = tested on: RPMI-8226
NCI-H522 = tested on: NCI-H522
SF-295 = tested on: SF-295
OVCAR-5 = tested on: OVCAR-5
UO-31 = tested on: UO-31
DMS-273 = tested on: DMS-273
LOX IMVI = tested on: LOX IMVI
XF498 = tested on: XF498
OVCAR-4 = tested on: OVCAR-4
SW-620 = tested on: SW-620
RXF 393 = tested on: RXF 393
OVCAR-3 = tested on: OVCAR-3
A549 = tested on: A549
SK-MEL-28 = tested on: SK-MEL-28
M14 = tested on: M14
DMS-114 = tested on: DMS-114
CAKI-1 = tested on: CAKI-1
Malme-3M = tested on: Malme-3M
HCT-15 = tested on: HCT-15
SK-MEL-5 = tested on: SK-MEL-5
SK-OV-3 = tested on: SK-OV-3
A498 = tested on: A498
CCRF-CEM = tested on: CCRF-CEM
HOP-92 = tested on: HOP-92
HT-29 = tested on: HT-29

In the case of `O=C(c1ccccc1)c1nc2ccc(Cl)cc2c2c1Cc1ccccc1-2`, the GI50 (786-0) is reported as > 100 µM (inactive), the GI50 (ACHN) is reported as > 100 µM (inactive) and the GI50 (TK-10) is reported as > 100 µM (inactive). The GI50 (SF-268) was > 100 µM (inactive), the GI50 (SN12C) was > 100 µM (inactive) and the GI50 (HOP-62) was > 100 µM (inactive). For the same compound, the GI50 (LXFL 529) was > 100 µM (inactive), the GI50 (IGROV-1) was > 100 µM (inactive) and the GI50 (COLO 205) was > 100 µM (inactive). The GI50 (HCC 2998) was > 100 µM (inactive), the GI50 (SR) was > 100 µM (inactive) and the GI50 (KM-20L2) was > 100 µM (inactive). For the same compound, the GI50 (NCI-H23) was > 100 µM (inactive), the GI50 (K562) was > 100 µM (inactive) and the GI50 (UACC-257) was > 100 µM (inactive). The GI50 (UACC-62) was > 100 µM (inactive), the GI50 (M19-MEL) was > 100 µM (inactive) and the GI50 (DLD-1) was > 100 µM (inactive). For the same compound, the GI50 (EKVX) was > 100 µM (inactive), the GI50 (HOP-18) was > 100 µM (inactive) and the GI50 (HCT-116) was > 100 µM (inactive). The GI50 (OVCAR-8) was > 100 µM (inactive), the GI50 (U-251) was > 100 µM (inactive) and the GI50 (MOLT-4) was > 100 µM (inactive). The GI50 (KM12) was > 100 µM (inactive), the GI50 (SNB-75) was 46.5 µM (inactive) and the GI50 (SNB-19) was > 100 µM (inactive). For the same compound, the GI50 (SF-539) was > 100 µM (inactive), the GI50 (NCI-H226) was > 100 µM (inactive) and the GI50 (SK-MEL-2) was > 100 µM (inactive). The GI50 (RPMI-8226) was > 100 µM (inactive), the GI50 (NCI-H522) was > 100 µM (inactive) and the GI50 (SF-295) was > 100 µM (inactive). The GI50 (OVCAR-5) was > 100 µM (inactive), the GI50 (UO-31) was > 100 µM (inactive) and the GI50 (DMS-273) was > 100 µM (inactive). The GI50 (LOX IMVI) was > 100 µM (inactive), the GI50 (XF498) was > 100 µM (inactive) and the GI50 (OVCAR-4) was > 100 µM (inactive). The GI50 (SW-620) was > 100 µM (inactive), the GI50 (RXF 393) was > 100 µM (inactive) and the GI50 (OVCAR-3) was > 100 µM (inactive). The GI50 (A549) was > 100 µM (inactive), the GI50 (SK-MEL-28) was > 100 µM (inactive) and the GI50 (M14) was > 100 µM (inactive). For the same compound, the GI50 (DMS-114) was > 100 µM (inactive), the GI50 (CAKI-1) was > 100 µM (inactive) and the GI50 (Malme-3M) was > 100 µM (inactive). For the same compound, the GI50 (HCT-15) was over 100 µM and the GI50 (SK-MEL-5) was > 100 µM (inactive).
In the case of `CC(C)(C)C(=O)CC(=O)C(C)(C)C.CC(C)(C)C(=O)CC(=O)C(C)(C)C.[SiH4]`, the GI50 (786-0) is reported as 2.69 µM (inactive), the GI50 (ACHN) is reported as 0.689 µM (active) and the GI50 (TK-10) is reported as 3.4 µM (inactive). The GI50 (SK-OV-3) was 1.87 µM (inactive), the GI50 (SF-268) was 1.76 µM (inactive) and the GI50 (SN12C) was 1.18 µM (inactive). The GI50 (HOP-62) was 2.33 µM (inactive), the GI50 (LXFL 529) was 1.56 µM (inactive) and the GI50 (IGROV-1) was 1.47 µM (inactive). The GI50 (A498) was 2.81 µM (inactive), the GI50 (COLO 205) was 1.46 µM (inactive) and the GI50 (CCRF-CEM) was 1.79 µM (inactive). For the same compound, the GI50 (HCC 2998) was 0.393 µM (active), the GI50 (KM-20L2) was 1.62 µM (inactive) and the GI50 (NCI-H23) was 1.04 µM (active). For the same compound, the GI50 (K562) was 1.57 µM (inactive), the GI50 (UACC-257) was 2.44 µM (inactive) and the GI50 (UACC-62) was 2.99 µM (inactive). The GI50 (M19-MEL) was 1.86 µM (inactive), the GI50 (DLD-1) was 0.436 µM (active) and the GI50 (EKVX) was < 0.01 µM (active). For the same compound, the GI50 (HOP-18) was 2.36 µM (inactive), the GI50 (HCT-116) was 1.26 µM (inactive) and the GI50 (OVCAR-8) was 2.92 µM (inactive). For the same compound, the GI50 (U-251) was 0.596 µM (active), the GI50 (MOLT-4) was 2.11 µM (inactive) and the GI50 (KM12) was 0.767 µM (active). For the same compound, the GI50 (SNB-75) was 0.719 µM (active), the GI50 (SNB-19) was 1.96 µM (inactive) and the GI50 (SF-539) was 2.56 µM (inactive). For the same compound, the GI50 (NCI-H226) was 0.0428 µM (active), the GI50 (RPMI-8226) was 0.299 µM (active) and the GI50 (NCI-H522) was 0.573 µM (active). For the same compound, the GI50 (SF-295) was 1.01 µM (active), the GI50 (OVCAR-5) was 2.21 µM (inactive) and the GI50 (UO-31) was 1.99 µM (inactive). For the same compound, the GI50 (DMS-273) was 0.446 µM (active), the GI50 (XF498) was 0.519 µM (active) and the GI50 (OVCAR-4) was 0.612 µM (active). The GI50 (SW-620) was 0.847 µM (active), the GI50 (OVCAR-3) was 2.07 µM (inactive) and the GI50 (A549) was 2.95 µM (inactive). The GI50 (SK-MEL-28) was 3.15 µM (inactive), the GI50 (M14) was 2.18 µM (inactive) and the GI50 (HOP-92) was 0.692 µM (active). For the same compound, the GI50 (DMS-114) was 0.566 µM (active), the GI50 (CAKI-1) was 0.579 µM (active) and the GI50 (Malme-3M) was 6.12 µM (inactive). The GI50 (HT-29) was 0.475 µM (active) and the GI50 (SK-MEL-5) was 2.1 µM (inactive).
